Entries after “also recorded” stand apart in the source; their conditions may differ.
Biological target: T1, NFAT1/DNA complex (Homo sapiens, UniProt Q13469)
T1 construct: human NFAT1 protein (residue 399-676, NFAT1-DBD)
T1 sequence (Q13469 399-676): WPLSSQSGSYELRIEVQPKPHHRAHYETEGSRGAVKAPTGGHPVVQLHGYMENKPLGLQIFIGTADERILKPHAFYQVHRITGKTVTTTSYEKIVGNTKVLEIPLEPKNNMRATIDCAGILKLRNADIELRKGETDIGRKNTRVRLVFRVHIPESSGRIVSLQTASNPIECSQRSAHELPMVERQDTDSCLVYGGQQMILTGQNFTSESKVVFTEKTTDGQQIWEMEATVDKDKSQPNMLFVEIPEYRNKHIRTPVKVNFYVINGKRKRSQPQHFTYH
Assay: Identification of covalent attachment site on crosslinked NFAT1 (trypsin digestion, Edman sequencing)
Conditions: for peptide identified by Edman sequencing of the DNA-peptide conjugate: trypsin digested crosslinked NFAT1/DNA complex
Protocol: FIG. 9A-FIG. 9D depicts characterization of BFPX-mediated crosslinking reaction, to identify the covalent attachment site on the protein. (FIG. 9A) A large scale of crosslinking reaction corresponding to lane 11 of FIG. 7 was carried out. The reaction mixture was separated on FPLC using a mono-Q column (yellow trace: conductance, red trace: salt gradient (A:10 mM Hepes pH 7.4; B: 10 mM Hepes 7.4, IM NaCl), blue trace: UV254 nm absorbance). […] The flow-through contains only free NFAT (lane 4), peak I contains predominantly the complex (lane 5) and peak II contains predominantly free DNA (lane 6). (FIG. 9C) The purified NFAT/DNA complex was digested with trypsin and the DNA-peptide conjugate was purified and sequenced by Edman degradation: Top panel, a schematic picture of the DNA binding domain of human NFAT1 (residue 399-676) used in the study, the sequence of loop 478-491, RITGKTVTTTSYEK (SEQ ID NO.: 1), is shown above; Middle panel: a schematic picture of the covalently capture NFAT/DNA complex, the DNA sequence (5′-[…]-3′ (SEQ ID NO: 2) and its complementary strand 3′-[…]-5′ (SEQ ID NO: 3)) used in the study is shown with the two potential probe (yellow wedge and start) binding site (TpA) indicated). The underlined region is the NFAT binding motif. Bottom panel: Edman sequencing results ([…], T480, and G481) identify the loop of 478-491, RITGKTVTTTSYEK (SEQ ID NO: 1), as the attachment site. […]
FIG. 13A depicts characterization of the BFPX-mediated crosslinking reaction: Identification of covalent attachment sites on the crosslinked proteins. […] The reaction mixtures were separated on FPLC using a mono-Q column (yellow trace: conductance, red trace: salt gradient (buffer A:10 mM Hepes pH 7.4; buffer B: 10 mM Hepes 7.4, 1 M NaCl), blue trace: UV254 nm absorbance). […]
We analyzed the covalent attachment sites on the NFAT/DNA complexes crosslinked by SPB-AAD and SPB-PEG4-AAD using a work flow shown in FIG. 13A. […] The sequencing results were generally noisy with multiple amino acids detected in each cycle. […]

peptide identified by Edman sequencing of the DNA-peptide conjugate	Compound	covalent attachment site on NFAT1 (human NFAT1 DBD residue 399-676)
IVGN and Ile, Thr, and Gly	C#CCCC1(CCNC(=O)CCCOc2c3occc3cc3ccc(=O)oc23)N=N1 [SPB-AAD, N-(2-(3-(but-3-yn-1-yl)-3H-diazirin-3-yl)ethyl)-4-((7-oxo-7H-furo[3,2-g]chromen-9-yl)oxy)butanamide]	
APTGGH	C#CCCC1(CCNC(=O)CCOCCOCCOCCOCCNC(=O)CCCOc2c3occc3cc3ccc(=O)oc23)N=N1 [SPB-PEG4-AAD, N-(2-(3-(but-3-yn-1-yl)-3H-diazirin-3-yl)ethyl)-1-(4-((7-oxo-7H-furo[3,2-g]chromen-9-yl)oxy)butanamido)-3,6,9,12-tetraoxapentadecan-15-amide]	residues 434 and 452; also recorded: loop of 434-452
